Columns and labels:
[1] = test system: CCRF-CEM; details: CCRF-CEM (Leukemia)
[2] = test system: MOLT-4; details: MOLT-4 (Leukemia)
[3] = test system: SR; details: SR (Leukemia)
[4] = test system: HOP-92; details: HOP-92 (Non-Small Cell Lung Cancer)
[5] = test system: NCI-H226; details: NCI-H226 (Non-Small Cell Lung Cancer)
[6] = test system: NCI-H23; details: NCI-H23 (Non-Small Cell Lung Cancer)
[7] = test system: NCI-H522; details: NCI-H522 (Non-Small Cell Lung Cancer)
[8] = test system: HCT-116; details: HCT-116 (Colon Cancer)
[9] = test system: HCT-15; details: HCT-15 (Colon Cancer)
[10] = test system: KM12; details: KM12 (Colon Cancer)
[11] = test system: SF-295; details: SF-295 (CNS Cancer)
[12] = test system: MALME-3M; details: MALME-3M (Melanoma)
[13] = test system: SK-MEL-2; details: SK-MEL-2 (Melanoma)
[14] = test system: SK-MEL-5; details: SK-MEL-5 (Melanoma)
[15] = test system: UACC-257; details: UACC-257 (Melanoma)
[16] = test system: IGROV1; details: IGROV1 (Ovarian Cancer)
[17] = test system: OVCAR-3; details: OVCAR-3 (Ovarian Cancer)
[18] = test system: OVCAR-4; details: OVCAR-4 (Ovarian Cancer)
[19] = test system: OVCAR-5; details: OVCAR-5 (Ovarian Cancer)
[20] = test system: SK-OV-3; details: SK-OV-3 (Ovarian Cancer)
[21] = test system: A498; details: A498 (Renal Cancer)
[22] = test system: ACHN; details: ACHN (Renal Cancer)
[23] = test system: RXF 393; details: RXF 393 (Renal Cancer)
[24] = test system: DU-145; details: DU-145 (Prostate Cancer)
[25] = test system: HS 578T; details: HS 578T (Breast Cancer)
[26] = test system: BT-549; details: BT-549 (Breast Cancer)
[27] = test system: PC-3; assay: in vitro antiproliferation assay, Prostate Cancer; details: PC-3 (Prostate Cancer)

COc1cc(Nc2ncc(F)c(Nc3ccc4c(n3)NC(=O)C(C)(C)O4)n2)cc(OC)c1OC.O=S(=O)(O)c1ccccc1 [Compound 1 (besylate salt), N4-(2,2-Dimethyl-3-oxo-4H-5-pyrid[1,4]oxazin-6-yl)-5-fluoro-N2-(3,4,5-trimethoxyphenyl)-2,4-pyrimidinediamine Benzenesulfonic Acid Salt]
TGI [1]: >1.00E−4
CC50 ([1]; read-out: LC50): > 100 µM
GI50 [2]: 4.82 µM
TGI [2]: >1.00E−4
CC50 ([2]; read-out: LC50): > 100 µM
GI50 [3]: 3.56 µM
TGI [3]: >1.00E−4
CC50 ([3]; read-out: LC50): > 100 µM
GI50 [4]: 0.41 µM
CC50 ([4]; read-out: LC50): > 100 µM
GI50 [5]: 0.497 µM
CC50 ([5]; read-out: LC50): > 100 µM
TGI [6]: >1.00E−4
CC50 ([6]; read-out: LC50): > 100 µM
TGI [7]: >1.00E−4
CC50 ([7]; read-out: LC50): > 100 µM
TGI [8]: >1.00E−4
CC50 ([8]; read-out: LC50): > 100 µM
TGI [9]: >1.00E−4
CC50 ([9]; read-out: LC50): > 100 µM
GI50 [10]: 0.355 µM
TGI [10]: >1.00E−4
CC50 ([10]; read-out: LC50): > 100 µM
TGI [11]: >1.00E−4
CC50 ([11]; read-out: LC50): > 100 µM
GI50 [12]: > 100 µM
TGI [12]: >1.00E−4
CC50 ([12]; read-out: LC50): > 100 µM
GI50 [13]: > 100 µM
TGI [13]: >1.00E−4
CC50 ([13]; read-out: LC50): > 100 µM
GI50 [14]: > 100 µM
TGI [14]: >1.00E−4
CC50 ([14]; read-out: LC50): > 100 µM
GI50 [15]: > 100 µM
TGI [15]: >1.00E−4
CC50 ([15]; read-out: LC50): > 100 µM
GI50 [16]: 0.796 µM
TGI [16]: >1.00E−4
CC50 ([16]; read-out: LC50): > 100 µM
GI50 [17]: > 100 µM
TGI [17]: >1.00E−4
CC50 ([17]; read-out: LC50): > 100 µM
GI50 [18]: > 100 µM
TGI [18]: >1.00E−4
CC50 ([18]; read-out: LC50): > 100 µM
GI50 [19]: > 100 µM
TGI [19]: >1.00E−4
CC50 ([19]; read-out: LC50): > 100 µM
GI50 [20]: 0.429 µM
TGI [20]: >1.00E−4
CC50 ([20]; read-out: LC50): > 100 µM
GI50 [21]: 0.36 µM
CC50 ([21]; read-out: LC50): > 100 µM
GI50 [22]: 1.24 µM
TGI [22]: >1.00E−4
CC50 ([22]; read-out: LC50): > 100 µM
GI50 [23]: 0.196 µM
TGI [23]: 7.74E−7
CC50 ([23]; read-out: LC50): > 100 µM
TGI [24]: >1.00E−4
CC50 ([24]; read-out: LC50): > 100 µM
GI50 [25]: 1.19 µM
TGI [25]: >1.00E−4
CC50 ([25]; read-out: LC50): > 100 µM
GI50 [26]: 2.43 µM
TGI [26]: >1.00E−4
CC50 ([26]; read-out: LC50): > 100 µM
GI50 [27]: 3.07 µM
TGI [27]: >1.00E−4
CC50 ([27]; read-out: LC50): > 100 µM

— patent US20090012045A1, “Methods of Treating Cell Proliferative Disorders” (RIGEL PHARMACEUTICALS, INC., priority 2007, published 2009)
